The values that follow come from PubChem BioAssay AID1645865 (Buhrlage Lab, Dana-Farber Cancer Institute and Novartis …, 2021).

What is called IC50 is the concentration that gives 50% inhibition.

Calls of active or inactive are those of the source.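 How the source made its calls: active means maximal inhibition of the USP30 enzyme reaching 30% or more across the dose series; inactive means the rest.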

For the experiment, the target named is Ubiquitin carboxyl-terminal hydrolase 30 (Homo sapiens) (UniProt Q70CQ3). The experiment in a line: ubiquitin-specific protease 30 DUB inhibitors, concentration-effect, biochemical, validation of primary actives (AID 1645865). The note with it: purified USP30, Ub-rhodamine cleavage, fluorescence, 2 h.
Ubiquitin carboxyl-terminal hydrolase 30 (Homo sapiens), sequence (Q70CQ3 whole entry, looked up): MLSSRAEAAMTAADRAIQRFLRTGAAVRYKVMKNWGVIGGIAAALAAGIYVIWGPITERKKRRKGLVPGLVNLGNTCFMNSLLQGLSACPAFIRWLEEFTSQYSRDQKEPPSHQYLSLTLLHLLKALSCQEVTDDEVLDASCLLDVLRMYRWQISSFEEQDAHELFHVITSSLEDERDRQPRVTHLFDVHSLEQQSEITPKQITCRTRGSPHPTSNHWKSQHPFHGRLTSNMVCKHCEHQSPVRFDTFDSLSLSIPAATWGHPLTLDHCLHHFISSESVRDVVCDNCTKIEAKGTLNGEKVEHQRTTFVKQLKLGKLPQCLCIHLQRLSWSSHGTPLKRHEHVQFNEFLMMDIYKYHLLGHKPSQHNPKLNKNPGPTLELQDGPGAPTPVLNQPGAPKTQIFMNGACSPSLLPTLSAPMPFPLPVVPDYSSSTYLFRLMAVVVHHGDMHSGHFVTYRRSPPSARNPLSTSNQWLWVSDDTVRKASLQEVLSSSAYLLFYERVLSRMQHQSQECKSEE

In the case of `Cc1c(-c2ccc(C#N)cc2)oc2ccc(Br)cc2c1=O`, the half-inhibitory concentration (IC50) is 2.57 µM. Consider `O=S(c1ccc2ccccc2c1)c1cnns1` (stereo not drawn), for which the IC50 was > 50 µM (inactive).

For the compound `Cc1cc(Cl)ccc1NC(=O)c1cc(-c2cccnc2)n[nH]1`, the IC50 is > 50 µM (inactive). Next, `CS(=O)(=O)N1CCCN(c2nc3cc(Cl)ccc3n3cccc23)CC1`: > 50 µM (inactive); `O=C(NCc1ccccc1)Nc1cccc2ccccc12`: 31.9 µM. In the case of `CC(C)NC(=O)Cn1ccn2nc(-c3ccc(Cl)cc3)cc2c1=O`, the IC50 was 3.6 µM. For `Cc1ccc(C2=Nc3ccccc3N(CC(=O)Nc3cccc(C)c3C)C(=O)C2)cc1C` the value was 4.93 µM; for `CC1Oc2ccccc2C(=O)N(Cc2ccc([N+](=O)[O-])cc2)C1=O` (stereo not drawn), > 50 µM (inactive); for `COCCCn1c(C(=O)NCCc2ccccc2)cc2c(=O)n3cccc(C)c3nc21`, 34.7 µM.

Take `COC(=O)c1ccc2c(=O)n(CCCCCC(=O)NCc3cccc(Cl)c3)c(=O)[nH]c2c1`: the IC50 was 1.69 µM. For `Cc1nnc(NCc2cccnc2)c2c1nnn2Cc1ccccc1Cl`, the IC50 was 28.3 µM. On to `O=C(COC(=O)c1ccc(Cl)cc1)Nc1ccc2[nH]c(=O)[nH]c2c1`, for which the IC50 was 3.98 µM. For `Cc1sc2ncnc(OCc3ccc(F)cc3Cl)c2c1C` the value was > 50 µM (inactive); for `COc1ccc(CCNC(=O)c2ccc3ccccc3c2)cc1OC`, > 50 µM (inactive). For `Cc1ccc(C)c(S(=O)(=O)N2CCN(c3ccc4nnc(-c5ccco5)n4n3)CC2)c1` the value was > 50 µM (inactive); for `Cc1cc(C)c2nc3c(cc2c1)CN(Cc1ccco1)C(=O)O3`, > 50 µM (inactive); for `COc1ccc(OC)c(NC(=O)CNC(=O)c2cc3c(OC)cccc3[nH]2)c1`, > 50 µM (inactive). Next, `Cc1cc(C)n2nc(CNc3cccc(Cl)c3)nc2n1`: > 50 µM (inactive); `Cc1c(-c2nsc(NC(=O)c3ccc(Cl)cc3)n2)nnn1-c1ccccc1F`: 0.488 µM; `O=c1ccc(-c2noc(-c3ccc4cc[nH]c4c3)n2)c[nH]1`: > 50 µM (inactive). Regarding `CC1=CC(=O)C(C2=C(O)C(=O)C(C)=CC2=O)=C(O)C1=O`, the IC50 is 36.2 µM. Next, `CC(C)=CCC/C(C)=C/C[C@]1(O)C(=O)c2cc(O)cc(O)c2C(=O)[C@@]1(Cl)CC=C(C)C`: > 50 µM (inactive). For `CC(C(=O)NCCc1ccccc1)n1nc(-c2ccccc2)c2cc(Cl)ccc21` (stereo not drawn) the value was 25.4 µM; for `CCCc1nc2sc3c(N(CC)CC)ncnc3c2c2c1CCC2`, > 50 µM (inactive); for `COc1cnc(CSc2ncccn2)cc1OCC(=O)Nc1cc(C)ccc1C`, 41.3 µM. Next, `O=C(c1ccsc1)N1CCC2(C1)Nc1cccnc1NC2=NC1CCCC1` (stereo not drawn): > 50 µM (inactive); `Cc1ccccc1N1C(=O)/C(=C\c2cccn2C)c2ccccc2C1=O`: > 50 µM (inactive). On to `CNc1nc2c(c(=O)n1Cc1ccccc1)CN(C(=O)c1ccc(CN)cc1)CC2`, for which the IC50 is 42.8 µM. Next, `O=S(=O)(c1cccc2cccnc12)N(CCc1ccccc1)C1CCN(CCc2ccc(Cl)cc2)CC1`: > 50 µM (inactive); `CCOc1ccc(-c2nc(C#N)c(N3CCN(C(=O)c4ccccc4C)CC3)o2)cc1`: 2.62 µM. For `O=C(Cn1c(CSc2ccccc2)nc2ccccc21)Nc1ccccc1F` the value was > 50 µM (inactive); for `COc1ccc(C(=O)C2CC(=O)Nc3c2c(C)nn3-c2ccc(Br)cc2)cc1` (stereo not drawn), 3.36 µM. Next, `COc1cccc(N2CCN(C(=O)c3cc(NC(C)=O)cc4nc(C)ccc34)CC2)c1`: > 50 µM (inactive); `CO[C@H]1[C@@H](O)[C@H](C)O[C@H](O[C@H]2[C@H](Oc3cccc4c(O)c5c(=O)oc6ccc(C)c7c(=O)oc(c34)c5c67)O[C@H](C)[C@H](O)[C@@H]2O)[C@@H]1O`: > 50 µM (inactive). As to `O=C1CC(O)C(C2=CC(=O)c3c(O)cccc3C2=O)O1` (stereo not drawn), the IC50 is 4.46 µM. Next, `CN(C)C1CCN(C(=O)c2cc(-c3ccn(-c4ccccc4)n3)n3ccccc23)CC1`: > 50 µM (inactive); `CSc1ncc(C(=O)NC(C)c2ccccc2)c(-c2ccccc2)n1` (stereo not drawn): 21.9 µM.

Regarding `COC(=O)COc1ccc(/C=N/NC(=O)c2ccc(CN3CCc4ccccc4C3)cc2)cc1`, the IC50 is 26.7 µM. Next, `Clc1cccc(N2CCN(c3ncnc4nc[nH]c34)CC2)c1`: 24.6 µM; `O=C(COc1ccc2ccccc2c1)Nc1cccc2ccccc12`: 21 µM; `COc1ccc(S(=O)(=O)N2CCN3Cc4ccccc4N(C)CC3C2)cc1` (stereo not drawn): > 50 µM (inactive).

As to `Cc1cc(C#N)c2c(C)ccc(C(C)C)cc1-2`, the IC50 is > 50 µM (inactive).

On to `O=C(CCCCn1c(=O)c2ccccc2n(CC(=O)Nc2ccc(F)c(Cl)c2)c1=O)NCc1ccco1`, for which the IC50 was > 50 µM (inactive). For `COc1ccccc1C(=O)NCC(c1ccc2c(c1)CCCN2C)N1CCCC1` (stereo not drawn) the value was > 50 µM (inactive).

Turning to `CC(C)N1CC2CN(C(=O)c3ccccc3)CCN2Cc2ccccc21` (stereo not drawn), the IC50 was > 50 µM (inactive). `CC12c3ccc4c(c3C(=O)c3occ(c31)C(=O)CC2O)CCC4=O` (stereo not drawn): the IC50 was > 50 µM (inactive). Next, `Cc1cccc(S(=O)(=O)N2CCc3nc4ccccc4n3CC2)c1`: 23.4 µM; `Cc1ccc(OCC(=O)Nc2cccc(-c3nc4ncccc4o3)c2)c(C)c1`: 34 µM; `COc1ccc(Nc2nc(C(=O)NCc3ccccc3)cc3occc23)cc1`: > 50 µM (inactive). Next, `O=C(Nc1ccc2c(c1)OCO2)C1CCN(Cc2nc3ccccc3s2)CC1`: > 50 µM (inactive). Regarding `O=C(Nc1cccc(C(F)(F)F)c1)N1CCCn2c(nc3ccccc32)C1`, the concentration for half-maximal inhibition (IC50) was 19.7 µM. On to `O=C(NCCc1ccccc1F)c1cn2cc(Cl)ccc2n1`, for which the IC50 was 38.9 µM.

For `CN(c1ccccc1)c1nc(=O)n(CC(=O)Nc2ccc3c(c2)OCCO3)c2ccccc12`, the IC50 was 35.9 µM. Regarding `O=c1ccc(-c2noc(Cc3c(F)cccc3Cl)n2)c[nH]1`, the IC50 is > 50 µM (inactive). Take `O=C(COc1nc2ccccc2nc1N1CCOCC1)NC(c1ccccc1)c1ccccc1`: the IC50 is > 50 µM (inactive). Turning to `CO/C=C/C(=O)c1cc2cnc3c(=N)cc(NC(C)=O)c([nH]1)c23`, the IC50 was > 50 µM (inactive). Consider `Cc1cc(C(=O)N2CCN(C3CCN(Cc4ccc(Cl)o4)CC3)C(=O)C2)c(C)o1`, for which the IC50 is > 50 µM (inactive). For `Cc1cc(C)cc(NC(=O)CSc2ccc(-c3ccncc3)nn2)c1` the value was 34.6 µM; for `CCOC(=O)N1CCN(S(=O)(=O)c2ccc(C(=O)Nc3ccc(Br)cc3)cc2)CC1`, 1.65 µM. For the compound `O=C(Cn1cnc(-c2noc(-c3ccncc3)n2)c1)N1CCN(c2ccccc2F)CC1`, the IC50 was > 50 µM (inactive). Next, `CC1CCN(S(=O)(=O)c2ccc3[nH]cc(C(=O)NCc4ccco4)c(=O)c3c2)CC1`: > 50 µM (inactive); `CC1Cc2ccccc2N1C(=O)Cn1c(=O)cc(O)c2ccccc21` (stereo not drawn): > 50 µM (inactive); `CC1=C(C(=O)Nc2ccccc2C)C(c2ccc(OCc3ccccc3F)cc2)n2ncnc2N1` (stereo not drawn): 30.6 µM.
